Patent US7416736B2, “Antimicrobial compositions” (Janssen Pharmaceutica N.V., priority 2001, dated 2008)

What was measured:
Assay type in all cases: cell-based
[1] = tested on: Escherichia coli IFO 3972; test: MIC against bacteria in nutrient broth (Working Example 1); settings: weight ratio 0:1 (second component alone), 24 hours at 30° C.
Method: (§1) By the following working examples, we describe in greater detail the antimicrobial effectiveness of the antimicrobial compositions of this invention. The term “MIC” as used in these working examples refers to the minimum inhibitory concentration (ppm) of the active ingredient in the antimicrobial compositions. […] The bacterial suspensions for inoculation used in working example 1 were prepared as follows. […] Next, test culture media were prepared by adding each of the varying diluted aqueous solutions (0.2 ml) of the antimicrobial compositions to a nutrient broth culture medium (10 ml). Each of these test culture media was inoculated with the above bacterial suspensions for inoculation (0.1 ml), and after culturing for 24 hours at 30° C. Then, the presence or absence of bacteria growth was assessed by visually observing the turbidity of the culture medium.

[2] = tested on: Staphylococcus aureus IFO 12732; test: as above; settings: weight ratio 0:1 (second component alone), 24 hours at 30° C.
Method: as §1

[3] = tested on: Aspergillus niger IFO 6341; test: MIC against fungi on potato dextrose agar (Working Example 2); settings: weight ratio 0:1 (second component alone), 7 days at 28° C.; for MIC: Aspergillus niger, IFO6341, 168 h, read-out: Minimum inhibitory concentration (ppm) against Aspergillus niger
Method: (§2) By the following working examples, we describe in greater detail the antimicrobial effectiveness of the antimicrobial compositions of this invention. The term “MIC” as used in these working examples refers to the minimum inhibitory concentration (ppm) of the active ingredient in the antimicrobial compositions. […] The spore suspensions for inoculation used in working example 2 were prepared as follows. Two fungi, Aspergillus niger IFO 6341 and Penicillium funiculosum IFO 6345, were cultured on two potato dextrose agar culture media not containing any biocides, and spores were formed. Next, said fungus spores were dispersed in disinfectant water to which 0.005% lubricant had been added, and two spore suspensions for inoculation were thus prepared. […] Next, test culture media were prepared by adding each of the varying diluted aqueous solutions (0.3 ml) of these antimicrobial compositions to a potato dextrose agar culture medium (15 ml). Each of these test culture media was inoculated with the above spore suspensions for inoculation (1 ml), and after culturing for 7 days at 28° C. Then, the presence or absence of fungus growth on each culture medium was observed visually.

[4] = tested on: Penicillium funiculosum IFO 6345; test: as above; settings: weight ratio 0:1 (second component alone), 7 days at 28° C.; for MIC: Talaromyces funiculosus, IFO6345, 168 h, read-out: Minimum inhibitory concentration (ppm) against Penicillium funiculosum
Method: as §2

[5] = tested on: Chlorella pyrenoidosa NIES 226; test: MIC against algae on Bold's Basal agar (Working Example 3); settings: weight ratio 0:1 (second component alone); 14 days at 25° C. and 1500 lux
Method: By the following working examples, we describe in greater detail the antimicrobial effectiveness of the antimicrobial compositions of this invention. The term “MIC” as used in these working examples refers to the minimum inhibitory concentration (ppm) of the active ingredient in the antimicrobial compositions. […] The algae suspensions for inoculation used in working example 3 were prepared as follows. Bold's Basal liquid culture medium (50 ml) was inoculated with Chlorella pyrenoidosa NIES 226, it was shake-cultured for 14 days at 25° C., and algae suspensions for inoculation was thus prepared. […] Next, test culture media were prepared by adding each of the varying diluted aqueous solutions (0.1 ml) of these antimicrobial compositions to Bold's Basal agar culture medium (15 ml). Each of these test culture media was inoculated with the above algae suspensions for inoculation (1 ml), and after culturing for 14 days at 25° C. and 1500 lux. Then, the presence or absence of algae growth on each culture medium was observed visually. […] Table 5 lists the MIC, for algae, of the antimicrobial composition of each weight ratio.

| Structure (SMILES) | MIC ([1]; Escherichia coli, IFO3972, read-out: Minimum inhibitory concentration (ppm) against Escherichia coli) | MIC ([2]; Staphylococcus aureus, IFO12732, read-out: Minimum inhibitory concentration (ppm) against Staphylococcus aureus) | MIC [3] | MIC [4] | Minimum inhibitory concentration (ppm) against Chlorella pyrenoidosa [5] | Minimum inhibitory concentration (ppm) against Escherichia coli [1] | Minimum inhibitory concentration (ppm) against Staphylococcus aureus [2] | Minimum inhibitory concentration (ppm) against Aspergillus niger [3] | Minimum inhibitory concentration (ppm) against Penicillium funiculosum [4] |
| --- | --- | --- | --- | --- | --- | --- | --- | --- | --- |
| Clc1ccc(OCOCC#CI)cc1 [b, 1-chloro-4-[[(3-iodo-2-propynyl)oxy]methoxy] benzene] | 1000 µg/mL | 20 µg/mL | 1 µg/mL | 4 µg/mL | 10 ppm |  |  |  |  |
| [O-][n+]1ccccc1[S-].[O-][n+]1ccccc1[S-].[Zn+2] [c, Zinc 2-pyridine thiol-1-oxide] |  |  |  |  | 20 ppm | 40 ppm | 40 ppm | 10 ppm | 1 ppm |
| [Cu+2].[O-][n+]1ccccc1[S-].[O-][n+]1ccccc1[S-] [d, Copper 2-pyridine thiol-1-oxide] |  |  |  |  | 100 ppm | 200 ppm | 10 ppm | 400 ppm | 1 ppm |
| [Na+].[O-][n+]1ccccc1[S-] [e, 2-pyridine thiol-1-oxide sodium salt] |  |  |  |  | 40 ppm | 200 ppm | 10 ppm | 400 ppm | 2 ppm |
| [O-][n+]1ccccc1SSc1cccc[n+]1[O-] [f, 2,2-dithio-bis(pyridine-1-oxide)] |  |  |  |  | 10 ppm | 10 ppm | 4 ppm | 10 ppm | 1 ppm |
| CSc1nc(NC2CC2)nc(NC(C)(C)C)n1 [g, 2-methylthio-4-t-butyl amino-6-cyclopropyl amino-s-triazine] |  |  |  |  | 0.1 ppm |  |  |  |  |
| CCCCNC(=O)OCC#CI [h, 3-iodo-2-propynyl butylcarbamate] |  |  | 1 µg/mL | 1 µg/mL | 40 ppm |  |  |  |  |
| CCCCCCCCn1sccc1=O [i, 2-(n-octyl)-3(2H)-isothiazolone] |  |  | 0.4 µg/mL | 0.2 µg/mL | 20 ppm |  |  |  |  |
